Patent publication US5106762A, “Ligand-label conjugates which contain polyoxoanions of sulfur or phosphorus” (Georgetown University, priority 1990, dated 1992)

What was measured:
[1] = tested on: murine monoclonal anti-DNP antibody #51; experiment: Binding of DNP-conjugates to anti-DNP-Sepharose; conditions: for DNP-Conjugate Bound / Ratio of Bound DNP-Conjugate to Immobilized IgG: binding to anti-DNP IgG1; for DNP-Conjugate Bound: applied conjugate to immobilized IgG 3.0 moles/moles, insulin conjugates 125I-labeled; for Ratio of Bound DNP-Conjugate to Immobilized IgG: applied ratio 3.0; for binding to anti-DNP-Sepharose after extensive washing (FIG. 3): 3:1 molar ratio of conjugate to immobilized antibody; for amount specifically bound to the antigen binding sites of immobilized antibody #51: after subtraction of non-specific binding to non-immune IgG-Sepharose
Experimental: (§1) Fluorescence intensity was measured on a SLM 8000 fluorimeter at 490 nm excitation and 519 nm emission. Individual fluorescence standard curves with known concentrations of the different DNP-fluorescein conjugates were used to calculate the amounts of DNP-conjugates from fluorescence units. Antibodies were coupled to tresyl chloride-activated Sepharose 4B (Sigma) at a concentration of 200 ug antibody/100 mg gel according to the manufacturer's recommendation. The amount of immobilized antibody was determined using a Coomassie blue assay as described in Ahmad et al, Anal. Biochem., vol. 148, pp 533-541 (1985). Peptide and protein determinations in fluid-phase were performed by UV absorbance at 280 nm, by the bicinchoninic acid method (Smith et al, Anal. Biochem., vol. 150, pp. 76-85 (1985)) using the Pierce BCA Protein Assay Reagent (Pierce), and by the Folin-Ciocalteau method (Lowry et al, J. Biol. chem., vol. 193, pp. 265 (1951)). The A-chain of bovine insulin (oxidized to the S-sulfonate form) (Sigma), the DNP-Ins conjugate, and the DNP-Ins-Flu conjugate were radiolabeled with Na^125 I (Amersham, Arlington Heights, IL) using immobilized chloramine-T (Iodo-Beads; Pierce, Rockford, IL) (Petrella et al, J. Immunol. Methods, vol. 104, pp. 159-172 (1987)).
(§2) Specific binding of the DNP-conjugates was determined with the murine monoclonal anti-DNP antibody #51 (Stanley et al, J. Immunol. Methods, vol. 64, pp. 119-132 (1983) and Steward et al, J. Immunol. Methods, vol. 78, pp. 173-190 (1985)) coupled to tresyl chloride-activated Sepharose 4B (anti-DNP-Sepharose) The monoclonal IgG1 antibody #51 (purified from ascites) was kindly provided by Dr. M. W. Steward (Dept. of Medical Microbiology, London School of Hygiene and Tropical Medicine, London, U.K.). Nonspecific binding was measured with Sepharose 4B-immobilized non-immune mouse IgG purified from mouse serum (Jackson ImmunoResearch Laboratories, West Grove, PA) (IgG-Sepharose). After removal of buffer by vacuum filtration on a scintered glass funnel, 50 mg aliquots of Sepharose 4B-antibody matrices were transferred to plastic conical vials and incubated with ^125 I-labeled DNP-insulin A-chain-fluorescein conjugate (1.6×10^6 cpm/nmole), or ^125 I-labeled DNP-insulin A-chain conjugate without attached fluorescein residues (3.3×10^6 cpm/nmole), or non-radiolabeled DNP-Lys-Fl at a 3 to 1 molar ratio of DNP-derivative to immobilized IgG in 10 mM phosphate/150 mM NaCl, pH 7.6, overnight at 4° C. on a rocking platform. Unbound conjugate was recovered by poking a hole in the bottom of the plastic vial with a 30 gauge needle, loading the vial on the top of a glass test tube, and centrifuging. Subsequent washing steps were performed with 150 μl of 10 mM phosphate/150 mM NaCl/0.1% (v/v) Triton X-100, pH 7.6. Aliquots of the solutions collected in the bottom of the test tubes after centrifugation were assayed for radioactivity or fluorescence.

[2] = tested on: immobilized monoclonal anti-DNP antibody #51; experiment: Displacement of DNP-conjugates from immobilized monoclonal anti-DNP antibody by DNP-lysine; assay type: binding, murine; conditions: for Displacement of Antibody-Bound DNP-Conjugate by DNP-Lysine: ± S.D., free DNP-lysine to antibody-bound conjugate 2.0 (DNP-Lys-Fl) or 3.4 (DNP-Ins-Fl, DNP-Ins) mole/mole
Experimental: as §2
Aliquots of anti-DNP-Sepharose (50 mg) were incubated with ^125 I-labeled DNP-insulin A-chain, or ^125 I-labeled DNP-insulin A-chain-fluorescein, or DNP-lysine-fluorescein and washed with 10 mM phosphate/150 mM NaCl/0.1% (v/v) Triton X-100, pH 7.6 , as described above in Specific and Nonspecific Binding of DNP-Conjugates. […] Displacement was determined by assaying aliquots of the solutions collected in the bottom of the test tubes after centrifugation for radioactivity or fluorescence.

non-immune mouse IgG = experiment: Nonspecific binding of DNP-conjugates to IgG-Sepharose; conditions: for DNP-Conjugate Bound / Ratio of Bound DNP-Conjugate to Immobilized IgG: binding to non-immune IgG; for DNP-Conjugate Bound: applied conjugate to immobilized IgG 3.0 moles/moles; for Ratio of Bound DNP-Conjugate to Immobilized IgG: applied ratio 3.0
Experimental: as §1, §2

[3] = Determination of fluorescence lifetime (variable frequency phase fluorimeter); assay type: physicochemical
Experimental: The fluorescence lifetime of the DNP-fluorescein conjugates was measured on an ISS Greg-200 variable frequency phase fluorimeter as described previously (Lakowicz et al, Biophys. J., vol. 46, pp. 463-477 (1984) and Gratton et al, Biophys. J., vol. 46, pp. 479-486 (1984)) using 1-chloro-bis-(phenylethynyl)anthracene (Aldrich) in ethanol (3.791 ns) as a reference (Thompson et al. Anal. Chem., vol. 60, pp. 670-674 (1988)). The resulting phase and modulation data for DNP-Ins-FL were fit to one, two, and three emissive components using a Simplex algorithm supplied by ISS. […] When the data were fit to a three component model, the third component was weak (<5%), poorly defined (1.1±3.2 ns), and gave no improvement in X^2. Therefore, a third component appears to be unnecessary to fit the data. Since the DNP moiety has the ability to quench the fluorescein emission, the data are best explained by two fluorescein residues being remote from and unquenched by the DNP group with the third fluorescein residue being closer and subject to quenching. In accord with this explanation is the observation that the fluorescence of the DNP-lysine-fluorescein derivative was substantially quenched as shown by its reduced quantum efficiency and subanosecond fluorescence lifetime.

Compound | DNP-Conjugate Bound [1] | Ratio of Bound DNP-Conjugate to Immobilized IgG [1] | Displacement of Antibody-Bound DNP-Conjugate by DNP-Lysine [2] | binding to anti-DNP-Sepharose after extensive washing (FIG. 3) [1] | amount specifically bound to the antigen binding sites of immobilized antibody #51 [1] | DNP-Conjugate Bound (non-immune mouse IgG) | Ratio of Bound DNP-Conjugate to Immobilized IgG (non-immune mouse IgG) | non-specific binding of DNP-Ins-Fl relative to DNP-Lys-Fl (non-immune mouse IgG; see Table II) | fluorescence lifetime, shorter lifetime component ([3]; two component fit) | fraction of first lifetime component ([3]; two component fit) | fraction of shorter lifetime component ([3]; two component fit) | fluorescence lifetime, first component ([3]; two component fit, X^2 =1.26) | efficiency of displacement by DNP-lysine relative to DNP-Ins [2] | efficiency of displacement by DNP-lysine relative to DNP-Lys-Fl ([2]; under comparable conditions) | fold difference in binding of DNP-Lys-Fl versus DNP-Ins-Fl to anti-DNP-Sepharose ([1]; 3:1 molar ratio, after extensive washing) | non-specific binding of DNP-Lys-Fl to immobilized non-immune IgG relative to DNP-Ins-Fl (non-immune mouse IgG) | fluorescence lifetime ([3]; in words)
dinitrophenyl-insulin A-chain [DNP-Ins] | 0.11 ± 0.01 nmol | 1.2 moles/moles | 1.56 ± 0.01 pmol |  |  |  |  |  |  |  |  |  |  |  |  |  | 
DNP-insulin A-chain-fluorescein [DNP-Ins-Fl] | 0.11 ± 0.03 nmol | 1.2 moles/moles | 3.20 ± 0.70 pmol | 38.8% | 0.7 mole conjugate/mole antibody | 0.44 ± 0.16 nmol | 0.5 moles/moles | about one-third | 2.068±0.150 ns | 64±7% | 36% | 4.091±0.177 ns | two-fold more efficient | much more efficient |  |  | 
O=C(O)c1cc(NC(=S)N[C@@H](CCCCNc2ccc([N+](=O)[O-])cc2[N+](=O)[O-])C(=O)O)ccc1-c1c2ccc(=O)cc-2oc2cc(O)ccc12 [DNP-Lys-Fl, DNP-lysine-fluorescein, reference compound] | 0.37 ± 0.02 nmol | 1.9 moles/moles | 0.45 ± 0.14 pmol | 62.7% | 0.4 mole conjugate/mole antibody | 1.27 ± 0.07 nmol | 1.5 moles/moles |  |  |  |  |  |  |  | 1.6 fold | three-fold higher | subanosecond
